Legend:
human CB1 receptor [1] = biological target: T1, human CB1 receptor (Homo sapiens, UniProt P21554); experiment: bioSensAll GAPL-Gi2 BRET biosensor assay in HEK293 cells transfected with hCB1; test compound added before EC75-80 of agonist CP55,940 (0.1 nM); assay type: cell-based; conditions: vs CP55,940 0.1 nM (EC75-80), read-out: CB1 wt Gi2 IC50
T1 construct: expressed in transfected cells; host or cells: HEK293
In short: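 Test compounds at 12 doses up to 600 nM preceded a 0.1 nM CP55,940 challenge in hCB1/GAPL-Gi2 HEK293 cells. After overnight 37° C incubation, methoxy e-coelenterazine (2 µM final) was added and the 515/400 nm BRET ratio normalized to positive and negative controls.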

human CB1 receptor [2] = biological target: T1, human CB1 receptor; experiment: bioSensAll β-arrestin2 plasma membrane translocation (+GRK2) BRET biosensor assay in HEK293 cells transfected with hCB1; test compound added before EC75-80 of agonist CP55,940 (100 nM); assay type: cell-based; conditions: βArrestin2 (+GRK2) BRET biosensor, vs CP55,940 100 nM (EC75-80), read-out: CB1 wt βarr2 IC50
In short: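 Antagonist mode: compound at 12 concentrations up to 600 nM, then 100 nM CP55,940 3–5 min later, on hCB1-transfected HEK293 cells carrying the β-arrestin2 plasma-membrane biosensor plus GRK2. After overnight 37 °C incubation, 515/400 nm BRET ratio measured with 2 µM methoxy e-CTZ and standardized against positive/negative controls.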

T1 sequence (P21554 whole entry): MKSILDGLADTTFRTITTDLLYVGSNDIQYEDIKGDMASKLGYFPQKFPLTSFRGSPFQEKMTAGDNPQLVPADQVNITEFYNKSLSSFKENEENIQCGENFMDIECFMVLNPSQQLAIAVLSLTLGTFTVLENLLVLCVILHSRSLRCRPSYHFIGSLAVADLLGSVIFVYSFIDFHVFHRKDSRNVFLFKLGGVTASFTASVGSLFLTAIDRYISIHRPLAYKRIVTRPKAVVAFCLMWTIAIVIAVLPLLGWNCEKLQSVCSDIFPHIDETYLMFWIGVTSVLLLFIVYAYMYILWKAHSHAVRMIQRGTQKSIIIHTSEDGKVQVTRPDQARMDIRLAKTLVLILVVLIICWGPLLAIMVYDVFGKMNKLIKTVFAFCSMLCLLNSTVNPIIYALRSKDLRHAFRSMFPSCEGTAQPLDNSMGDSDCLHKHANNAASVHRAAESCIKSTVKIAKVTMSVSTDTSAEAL

Compound | IC50 (human CB1 receptor [1]) | IC50 (human CB1 receptor [2])
CCNC1(C(N)=O)CCN(c2nc(N(C)CCO)nc3c2nc(-c2ccccc2Cl)n3-c2ccc(Cl)cc2)CC1 [Compound 148] | 1 nM | 1.49 nM
CCNC1(C(N)=O)CCN(c2nc(N)nc3c2nc(-c2ccccc2Cl)n3-c2ccc(Cl)cc2)CC1 [Compound 149] | 8.93 nM | > 5000 nM
CCNC1(C(N)=O)CCN(c2nc(N3CCCCC3)nc3c2nc(-c2ccccc2Cl)n3-c2ccc(Cl)cc2)CC1 [Compound 150] | 2.67 nM | 8.17 nM
CCNC1(C(N)=O)CCN(c2nc(NCc3ccccc3)nc3c2nc(-c2ccccc2Cl)n3-c2ccc(Cl)cc2)CC1 [Compound 151] | 4.46 nM | 12.9 nM
CCNC1(C(N)=O)CCN(c2nc(-n3ccnc3)nc3c2nc(-c2ccccc2Cl)n3-c2ccc(Cl)cc2)CC1 [Compound 152] | 0.716 nM | 1.2 nM
CCNC1(C(N)=O)CCN(c2nc(N3CCC(CO)C3)nc3c2nc(-c2ccccc2Cl)n3-c2ccc(Cl)cc2)CC1 (stereo not shown) [Compound 153] | 0.503 nM | 1.29 nM
NC(=O)C1CCN(c2nc(N3CCC[C@H]3CO)nc3c2nc(-c2ccccc2Cl)n3-c2ccc(Cl)cc2)CC1 [Compound 154] | 0.813 nM | 7.28 nM
CN(CCO)c1nc(N2CCC(C(N)=O)CC2)c2nc(-c3ccccc3Cl)n(-c3ccc(Cl)cc3)c2n1 [Compound 155] | 1.01 nM | 14.8 nM
CNCCOc1nc(N2CCC(C(N)=O)CC2)c2nc(-c3ccccc3Cl)n(-c3ccc(Cl)cc3)c2n1 [Compound 156] | 54.7 nM | > 5000 nM
CN(CCO)c1nc(N2CCN(C(N)=O)CC2)c2nc(-c3ccccc3Cl)n(-c3ccc(Cl)cc3)c2n1 [Compound 157] | 0.938 nM | 6.04 nM
CN(CCO)c1nc(N2CCC(C)(C(N)=O)CC2)c2nc(-c3ccccc3Cl)n(-c3ccc(Cl)cc3)c2n1 [Compound 158, 1-[8-(2-chlorophenyl)-9-(4-chlorophenyl)-2-((2-hydroxyethyl)(methyl)amino)-purin-6-yl]-4-methyl-piperidine-4-carboxamide] | 0.555 nM | 0.931 nM
CC1(C(N)=O)CCN(c2nc(OC[C@@H]3CCCN3)nc3c2nc(-c2ccccc2Cl)n3-c2ccc(Cl)cc2)CC1 [Compound 160, 1-[8-(2-chlorophenyl)-9-(4-chlorophenyl)-2-((2S)-pyrrolidinemethoxy)-purin-6-yl]-4-methyl-piperidine-4-carboxamide] | 0.868 nM | 21.7 nM
CN(CCO)c1nc(N2CCC(C(F)(F)F)CC2)c2nc(-c3ccccc3Cl)n(-c3ccc(Cl)cc3)c2n1 [Compound 161, 1-[[8-(2-chlorophenyl)-9-(4-chlorophenyl)-6-[4-(trifluoromethyl)-1-piperidyl]purin-2-yl]-methyl-amino]-ethan-2-ol] | 0.95 nM | 1.53 nM
OC[C@@H]1CCCN1c1nc(N2CCC(C(F)(F)F)CC2)c2nc(-c3ccccc3Cl)n(-c3ccc(Cl)cc3)c2n1 [Compound 162, [(2S)-1-[8-(2-chlorophenyl)-9-(4-chlorophenyl)-6-[4-(trifluoromethyl)-1-piperidyl]purin-2-yl]pyrrolidin-2-yl]methanol] | 1.3 nM | 1.83 nM
OC[C@@H]1CCCN1c1nc(-c2ccc(C(F)(F)F)nc2)c2nc(-c3ccccc3Cl)n(-c3ccc(Cl)cc3)c2n1 [Compound 163] | 0.491 nM | 2.78 nM
O=S1(=O)CCC(Nc2nc(-n3ccnc3)nc3c2nc(-c2ccccc2Cl)n3-c2ccc(Cl)cc2)CC1 [Compound 164] | 1.66 nM | 22.8 nM
CN(CCO)c1nc(-c2ccc(C(F)(F)F)nc2)c2nc(-c3ccccc3Cl)n(-c3ccc(Cl)cc3)c2n1 [Compound 165] | 0.413 nM | 2.03 nM
O=S1(=O)CCC(Nc2nc(N3CCC[C@H]3CO)nc3c2nc(-c2ccccc2Cl)n3-c2ccc(Cl)cc2)CC1 [Compound 166] | 0.308 nM | 1.4 nM
CN(CCO)c1nc(NC2CCS(=O)(=O)CC2)c2nc(-c3ccccc3Cl)n(-c3ccc(Cl)cc3)c2n1 [Compound 167] | 0.421 nM | 4.39 nM

Compound | IC50 (human CB1 receptor [1]) | IC50 (human CB1 receptor [2])
CN1CCN(c2nc(N(C)CCO)nc3c2nc(-c2ccccc2Cl)n3-c2ccc(Cl)cc2)CC1 [Compound 168] | 1.93 nM | 12 nM
OC[C@@H]1CN(c2nc(N3CCC[C@H]3CO)nc3c2nc(-c2ccccc2Cl)n3-c2ccc(Cl)cc2)CCO1 [Compound 169] | 0.532 nM | 2.04 nM
CN(CCO)c1nc(N2CCO[C@H](CO)C2)c2nc(-c3ccccc3Cl)n(-c3ccc(Cl)cc3)c2n1 [Compound 170] | 0.597 nM | 3.49 nM
COC(=O)N1CCN(c2nc(N(C)CCO)nc3c2nc(-c2ccccc2Cl)n3-c2ccc(Cl)cc2)CC1 [Compound 173] | 0.419 nM | 1.51 nM
CN(CCO)c1nc(NC2CN(C(N)=O)C2)c2nc(-c3ccccc3Cl)n(-c3ccc(Cl)cc3)c2n1 [Compound 176] | 15.6 nM | > 5000 nM
CCOC1(C(N)=O)CCN(c2nc(N3CCC[C@H]3CO)nc3c2nc(-c2ccccc2Cl)n3-c2ccc(Cl)cc2)CC1 [Compound 177] | 0.436 nM | 1.88 nM
CN(CCO)c1nc(NC2CCOCC2)c2nc(-c3ccccc3Cl)n(-c3ccc(Cl)cc3)c2n1 [Compound 178] | 0.544 nM | 4.04 nM
CN(CCO)c1nc(NC2CN(C(=O)C(F)(F)F)C2)c2nc(-c3ccccc3Cl)n(-c3ccc(Cl)cc3)c2n1 [Compound 179] | 0.244 nM | 1.92 nM
CN(CCO)c1nc(N2CCC(C)(O)CC2)c2nc(-c3ccccc3Cl)n(-c3ccc(Cl)cc3)c2n1 [Compound 181] | 0.181 nM | 0.592 nM
CCOC1(C(N)=O)CCN(c2nc(N(C)CCO)nc3c2nc(-c2ccccc2Cl)n3-c2ccc(Cl)cc2)CC1 [Compound 182] | 0.175 nM | 0.661 nM
CN(CCO)c1nc(N2CCOCC2)c2nc(-c3ccccc3Cl)n(-c3ccc(Cl)cc3)c2n1 [Compound 183] | 0.167 nM | 0.785 nM
CN(CCO)c1nc(N2CCC(F)(F)CC2)c2nc(-c3ccccc3Cl)n(-c3ccc(Cl)cc3)c2n1 [Compound 184] | 0.24 nM | 0.889 nM
CN(CCO)c1nc(N2CCC3(CCNC3=O)CC2)c2nc(-c3ccccc3Cl)n(-c3ccc(Cl)cc3)c2n1 [Compound 186] | 0.407 nM | 4.92 nM
CN(CCO)C(=O)C1CN(c2nc(N(C)CCO)nc3c2nc(-c2ccccc2Cl)n3-c2ccc(Cl)cc2)C1 [Compound 187] | 3.97 nM | 40.4 nM
CN(CCO)c1nc(N2CC3(COC3)C2)c2nc(-c3ccccc3Cl)n(-c3ccc(Cl)cc3)c2n1 [Compound 188] | 0.31 nM | 1.84 nM
CC(C)Oc1nc(N(C)CCO)nc2c1nc(-c1ccccc1Cl)n2-c1ccc(Cl)cc1 [Compound 189] | 0.419 nM | 1.35 nM
CN(CCO)c1nc(N2CCC3(CC2)NC(=O)NC3=O)c2nc(-c3ccccc3Cl)n(-c3ccc(Cl)cc3)c2n1 [Compound 190] | 2.66 nM | 23.7 nM
CN(CCO)c1nc(N2CCC3(CCOC3)CC2)c2nc(-c3ccccc3Cl)n(-c3ccc(Cl)cc3)c2n1 [Compound 191] | 0.418 nM | 0.626 nM
CN(CCO)c1nc(N(C)C2CCOC2)c2nc(-c3ccccc3Cl)n(-c3ccc(Cl)cc3)c2n1 (stereo not shown) [Compound 197] | 0.161 nM | 1.19 nM
